How the values were obtained:
[1] = tested on: Tyrosine-protein kinase ABL1 (Homo sapiens), P00519 [E255K]; test: Binding affinity to human phosphorylated ABL1 E255K mutant (S229 to K512 residues) expressed in mammalian expression system assessed as residual binding level at 10 uM by Kinomescan method relative to control
[2] = target: RAC-gamma serine/threonine-protein kinase (Homo sapiens) (UniProt Q9Y243); test: Binding affinity to wild-type human partial length AKT3 expressed in bacterial expression system assessed as residual binding level at 10 uM by Kinomescan method relative to control
[3] = target: Tyrosine-protein kinase BTK (Homo sapiens) (UniProt Q06187); test: Binding affinity to wild-type human full length BTK (M1 to S659 residues) expressed in mammalian expression system assessed as residual binding level at 10 uM by Kinomescan method relative to control
[4] = target: Mitotic checkpoint serine/threonine-protein kinase BUB1 (Homo sapiens) (UniProt O43683); test: Binding affinity to wild-type human partial length BUB1 (Q724 to K1085 residues) expressed in mammalian expression system assessed as residual binding level at 10 uM by Kinomescan method relative to control
[5] = target: Ephrin type-B receptor 4 (Homo sapiens) (UniProt P54760); test: Binding affinity to wild-type human partial length EPHB4 (H585 to G892 residues) expressed in bacterial expression system assessed as residual binding level at 10 uM by Kinomescan method relative to control
[6] = target: Receptor-type tyrosine-protein kinase FLT3 (Homo sapiens) (UniProt P36888); test: Binding affinity to wild-type human partial length autoinhibited FLT3 (H564 to Y969 residues) expressed in mammalian expression system assessed as residual binding level at 10 uM by Kinomescan method relative to control
[7] = target: Cyclin-G-associated kinase (Homo sapiens) (UniProt O14976); test: Binding affinity to wild-type human partial length GAK (G13 to Y338 residues) expressed in bacterial expression system assessed as residual binding level at 10 uM by Kinomescan method relative to control
[8] = target: Serine/threonine-protein kinase ICK (Homo sapiens) (UniProt Q9UPZ9); test: Binding affinity to wild-type human partial length ICK (M1 to P314 residues) expressed in mammalian expression system assessed as residual binding level at 10 uM by Kinomescan method relative to control
[9] = target: Tyrosine-protein kinase ITK/TSK (Homo sapiens) (UniProt Q08881); test: Binding affinity to wild-type human partial length ITK (R335 to L620 residues) expressed in bacterial expression system assessed as residual binding level at 10 uM by Kinomescan method relative to control
[10] = target: Serine/threonine-protein kinase MAK (Homo sapiens) (UniProt P20794); test: Binding affinity to wild-type human partial length MAK (M1 to P314 residues) expressed in bacterial expression system assessed as residual binding level at 10 uM by Kinomescan method relative to control
[11] = target: Mitogen-activated protein kinase kinase kinase kinase 5 (Homo sapiens) (UniProt Q9Y4K4); test: Binding affinity to wild-type human partial length MAP4K5 (M1 to P297 residues) expressed in bacterial expression system assessed as residual binding level at 10 uM by Kinomescan method relative to control
[12] = target: Dual specificity mitogen-activated protein kinase kinase 1 (Homo sapiens) (UniProt Q02750); test: Binding affinity to wild-type human full length MEK1 (M1 to V393 residues) expressed in mammalian expression system assessed as residual binding level at 10 uM by Kinomescan method relative to control
[13] = target: Myosin light chain kinase, smooth muscle (Homo sapiens) (UniProt Q15746); test: Binding affinity to wild-type human full length MYLK (M854 to E1845 residues) expressed in mammalian expression system assessed as residual binding level at 10 uM by Kinomescan method relative to control
[14] = target: 3-phosphoinositide-dependent protein kinase 1 (Homo sapiens) (UniProt O15530); test: Binding affinity to wild-type human full length PDPK1 (M1 to Q556 residues) expressed in bacterial expression system assessed as residual binding level at 10 uM by Kinomescan method relative to control
[15] = tested on: Phosphatidylinositol 4,5-bisphosphate 3-kinase catalytic subunit alpha isoform (Homo sapiens), P42336 [I800L]; test: Binding affinity to human partial length PIK3CA I800L mutant (R108 to N1068 residues) expressed in mammalian expression system assessed as residual binding level at 10 uM by Kinomescan method relative to control
[16] = target: Serine/threonine-protein kinase 33 (Homo sapiens) (UniProt Q9BYT3); test: Binding affinity to wild-type human full length STK33 (M1 to L514 residues) expressed in bacterial expression system assessed as residual binding level at 10 uM by Kinomescan method relative to control
[17] = target: Serine/threonine-protein kinase TAO2 (Homo sapiens) (UniProt Q9UL54); test: Binding affinity to wild-type human partial length TAOK2 (M1 to A320 residues) expressed in mammalian expression system assessed as residual binding level at 10 uM by Kinomescan method relative to control
[18] = target: Dual specificity testis-specific protein kinase 1 (Homo sapiens) (UniProt Q15569); test: Binding affinity to wild-type human full length TESK1 (R37 to S626 residues) expressed in bacterial expression system assessed as residual binding level at 10 uM by Kinomescan method relative to control
[19] = target: Tyrosine-protein kinase receptor TYRO3 (Homo sapiens) (UniProt Q06418); test: Binding affinity to wild-type human partial length TYRO3 (S497 to T814 residues) expressed in bacterial expression system assessed as residual binding level at 10 uM by Kinomescan method relative to control
[20] = target: Serine/threonine-protein kinase ULK3 (Homo sapiens) (UniProt Q6PHR2); test: Binding affinity to wild-type human partial length ULK3 (M1 to Q290 residues) expressed in mammalian expression system assessed as residual binding level at 10 uM by Kinomescan method relative to control
[21] = target: Phosphatidylinositol 3-kinase catalytic subunit type 3 (Homo sapiens) (UniProt Q8NEB9); test: Binding affinity to wild-type human partial length VPS34 (S282 to H879 residues) expressed in mammalian expression system assessed as residual binding level at 10 uM by Kinomescan method relative to control
[22] = target: Serine/threonine-protein kinase WNK2 (Homo sapiens) (UniProt Q9Y3S1); test: Binding affinity to wild-type human partial length WNK2 (V47 to D482 residues) expressed in mammalian expression system assessed as residual binding level at 10 uM by Kinomescan method relative to control
[23] = target: Serine/threonine-protein kinase 32C (Homo sapiens) (UniProt Q86UX6); test: Binding affinity to wild-type human partial length YANK3 (M68 to G486 residues) expressed in bacterial expression system assessed as residual binding level at 10 uM by Kinomescan method relative to control
[24] = target: Tyrosine-protein kinase Yes (Homo sapiens) (UniProt P07947); test: Binding affinity to wild-type human partial length YES (T257 to L543 residues) expressed in bacterial expression system assessed as residual binding level at 10 uM by Kinomescan method relative to control
Tyrosine-protein kinase Yes (Homo sapiens), sequence (P07947 2-543 limits assumed): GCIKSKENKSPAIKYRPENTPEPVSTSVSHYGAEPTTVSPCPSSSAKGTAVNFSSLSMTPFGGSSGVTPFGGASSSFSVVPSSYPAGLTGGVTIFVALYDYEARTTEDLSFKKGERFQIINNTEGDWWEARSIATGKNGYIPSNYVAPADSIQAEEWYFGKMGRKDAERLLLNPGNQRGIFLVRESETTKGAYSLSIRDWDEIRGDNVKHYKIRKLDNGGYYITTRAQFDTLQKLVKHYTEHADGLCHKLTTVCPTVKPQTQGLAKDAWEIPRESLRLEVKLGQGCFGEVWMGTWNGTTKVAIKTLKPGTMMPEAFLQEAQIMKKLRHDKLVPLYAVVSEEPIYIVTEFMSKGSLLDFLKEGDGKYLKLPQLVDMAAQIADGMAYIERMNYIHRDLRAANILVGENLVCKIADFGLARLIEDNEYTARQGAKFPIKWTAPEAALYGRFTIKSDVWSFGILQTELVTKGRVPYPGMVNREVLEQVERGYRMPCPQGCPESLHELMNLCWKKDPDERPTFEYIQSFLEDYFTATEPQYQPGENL

Ephrin type-B receptor 4 (Homo sapiens), sequence (P54760 whole entry, the tested form may be a part): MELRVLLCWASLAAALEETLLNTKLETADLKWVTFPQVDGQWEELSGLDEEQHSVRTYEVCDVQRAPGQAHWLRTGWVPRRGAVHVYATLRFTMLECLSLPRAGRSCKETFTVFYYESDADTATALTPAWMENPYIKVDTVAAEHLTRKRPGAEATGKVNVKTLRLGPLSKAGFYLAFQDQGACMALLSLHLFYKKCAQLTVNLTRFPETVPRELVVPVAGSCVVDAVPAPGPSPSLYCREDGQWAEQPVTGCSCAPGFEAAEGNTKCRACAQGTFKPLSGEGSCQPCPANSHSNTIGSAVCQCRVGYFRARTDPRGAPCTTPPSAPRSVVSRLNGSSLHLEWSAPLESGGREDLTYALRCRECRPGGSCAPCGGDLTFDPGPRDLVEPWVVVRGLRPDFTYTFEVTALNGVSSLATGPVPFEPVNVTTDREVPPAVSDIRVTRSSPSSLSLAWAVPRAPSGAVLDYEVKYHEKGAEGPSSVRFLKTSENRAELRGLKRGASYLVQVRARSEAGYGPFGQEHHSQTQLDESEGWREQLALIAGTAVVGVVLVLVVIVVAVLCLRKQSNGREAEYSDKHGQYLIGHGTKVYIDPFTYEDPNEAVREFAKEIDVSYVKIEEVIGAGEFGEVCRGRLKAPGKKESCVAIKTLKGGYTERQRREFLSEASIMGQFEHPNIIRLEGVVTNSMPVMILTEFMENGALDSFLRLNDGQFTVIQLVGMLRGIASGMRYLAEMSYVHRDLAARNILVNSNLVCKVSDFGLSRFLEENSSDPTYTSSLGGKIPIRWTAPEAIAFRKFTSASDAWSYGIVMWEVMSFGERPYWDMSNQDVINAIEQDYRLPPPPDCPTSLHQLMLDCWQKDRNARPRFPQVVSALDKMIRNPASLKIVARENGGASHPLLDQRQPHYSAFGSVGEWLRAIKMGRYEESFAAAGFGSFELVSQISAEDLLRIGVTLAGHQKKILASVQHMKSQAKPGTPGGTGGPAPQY
Serine/threonine-protein kinase 32C (Homo sapiens), sequence (Q86UX6 whole entry, the tested form may be a part): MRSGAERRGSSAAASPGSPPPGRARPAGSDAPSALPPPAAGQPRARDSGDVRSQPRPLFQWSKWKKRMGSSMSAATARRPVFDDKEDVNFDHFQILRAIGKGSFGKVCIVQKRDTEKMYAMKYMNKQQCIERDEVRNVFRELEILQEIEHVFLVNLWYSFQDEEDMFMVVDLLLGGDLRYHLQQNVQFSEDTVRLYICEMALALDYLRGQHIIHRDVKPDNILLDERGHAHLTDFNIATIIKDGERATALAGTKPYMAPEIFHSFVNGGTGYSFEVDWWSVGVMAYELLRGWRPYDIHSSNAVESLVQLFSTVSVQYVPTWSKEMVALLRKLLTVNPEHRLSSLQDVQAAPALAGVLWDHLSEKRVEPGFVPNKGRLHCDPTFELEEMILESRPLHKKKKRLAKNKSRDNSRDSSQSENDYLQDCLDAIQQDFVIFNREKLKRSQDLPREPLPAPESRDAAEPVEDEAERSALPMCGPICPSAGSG
Serine/threonine-protein kinase ULK3 (Homo sapiens), sequence (Q6PHR2 whole entry, the tested form may be a part): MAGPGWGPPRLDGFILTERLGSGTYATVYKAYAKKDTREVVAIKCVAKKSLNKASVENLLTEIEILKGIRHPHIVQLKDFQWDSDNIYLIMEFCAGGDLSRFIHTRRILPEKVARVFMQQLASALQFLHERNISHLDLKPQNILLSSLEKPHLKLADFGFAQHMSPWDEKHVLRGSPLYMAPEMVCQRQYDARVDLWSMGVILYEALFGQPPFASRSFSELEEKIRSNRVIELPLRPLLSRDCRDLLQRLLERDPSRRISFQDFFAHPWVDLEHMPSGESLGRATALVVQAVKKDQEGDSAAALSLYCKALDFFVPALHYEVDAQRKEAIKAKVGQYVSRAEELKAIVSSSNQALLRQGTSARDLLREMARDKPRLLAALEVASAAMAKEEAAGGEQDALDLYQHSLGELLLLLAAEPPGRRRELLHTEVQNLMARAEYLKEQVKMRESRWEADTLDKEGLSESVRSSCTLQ
Serine/threonine-protein kinase ICK (Homo sapiens), sequence (Q9UPZ9 whole entry, the tested form may be a part): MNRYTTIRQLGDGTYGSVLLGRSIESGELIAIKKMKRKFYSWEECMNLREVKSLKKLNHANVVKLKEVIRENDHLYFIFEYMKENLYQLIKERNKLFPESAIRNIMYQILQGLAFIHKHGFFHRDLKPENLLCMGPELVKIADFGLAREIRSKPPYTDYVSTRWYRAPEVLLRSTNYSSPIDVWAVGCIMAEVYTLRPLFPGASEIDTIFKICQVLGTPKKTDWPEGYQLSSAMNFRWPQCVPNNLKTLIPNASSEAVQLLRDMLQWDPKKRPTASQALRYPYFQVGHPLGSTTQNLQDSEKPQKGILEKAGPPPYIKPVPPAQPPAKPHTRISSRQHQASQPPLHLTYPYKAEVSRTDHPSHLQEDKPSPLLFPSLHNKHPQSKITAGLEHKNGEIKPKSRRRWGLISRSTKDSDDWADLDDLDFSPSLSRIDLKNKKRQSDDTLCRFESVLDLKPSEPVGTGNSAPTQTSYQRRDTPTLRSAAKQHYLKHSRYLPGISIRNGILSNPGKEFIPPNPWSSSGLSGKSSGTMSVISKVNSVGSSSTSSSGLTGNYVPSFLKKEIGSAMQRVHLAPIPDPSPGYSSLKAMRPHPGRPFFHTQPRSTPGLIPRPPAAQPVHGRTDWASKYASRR
Serine/threonine-protein kinase TAO2 (Homo sapiens), sequence (Q9UL54 whole entry, the tested form may be a part): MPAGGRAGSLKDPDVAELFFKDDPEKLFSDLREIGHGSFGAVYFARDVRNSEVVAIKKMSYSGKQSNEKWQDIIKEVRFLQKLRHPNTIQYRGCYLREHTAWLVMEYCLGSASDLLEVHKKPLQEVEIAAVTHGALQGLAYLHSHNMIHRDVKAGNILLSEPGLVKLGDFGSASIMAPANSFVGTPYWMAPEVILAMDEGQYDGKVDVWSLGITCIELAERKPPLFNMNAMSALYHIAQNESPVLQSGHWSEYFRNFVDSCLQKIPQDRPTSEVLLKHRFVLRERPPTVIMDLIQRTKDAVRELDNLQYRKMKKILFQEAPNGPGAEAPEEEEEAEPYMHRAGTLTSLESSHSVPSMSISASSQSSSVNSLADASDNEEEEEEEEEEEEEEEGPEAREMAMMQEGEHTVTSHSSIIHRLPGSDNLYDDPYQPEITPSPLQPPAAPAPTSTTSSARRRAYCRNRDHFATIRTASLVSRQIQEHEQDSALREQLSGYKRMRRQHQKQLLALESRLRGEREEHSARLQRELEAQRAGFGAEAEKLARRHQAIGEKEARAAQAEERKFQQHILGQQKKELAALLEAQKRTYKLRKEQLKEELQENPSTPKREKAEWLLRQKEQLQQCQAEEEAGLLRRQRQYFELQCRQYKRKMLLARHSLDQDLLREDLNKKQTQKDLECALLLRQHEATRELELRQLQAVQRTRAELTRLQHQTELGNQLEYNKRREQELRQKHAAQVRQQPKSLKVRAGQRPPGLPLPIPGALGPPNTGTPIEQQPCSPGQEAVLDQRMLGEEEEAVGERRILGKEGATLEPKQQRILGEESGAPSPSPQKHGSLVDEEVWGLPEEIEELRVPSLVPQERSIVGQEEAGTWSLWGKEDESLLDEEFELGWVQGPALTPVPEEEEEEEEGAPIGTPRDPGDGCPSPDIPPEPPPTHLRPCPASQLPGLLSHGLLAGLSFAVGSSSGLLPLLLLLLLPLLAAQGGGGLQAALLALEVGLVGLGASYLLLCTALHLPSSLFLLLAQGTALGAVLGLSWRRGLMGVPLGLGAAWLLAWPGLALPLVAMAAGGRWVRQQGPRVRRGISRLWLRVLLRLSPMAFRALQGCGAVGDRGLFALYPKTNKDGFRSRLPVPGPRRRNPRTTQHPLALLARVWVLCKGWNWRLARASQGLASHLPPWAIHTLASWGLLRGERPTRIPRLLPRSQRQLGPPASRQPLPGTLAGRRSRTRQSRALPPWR
Serine/threonine-protein kinase 33 (Homo sapiens), sequence (Q9BYT3 whole entry, looked up, the tested form may be a part): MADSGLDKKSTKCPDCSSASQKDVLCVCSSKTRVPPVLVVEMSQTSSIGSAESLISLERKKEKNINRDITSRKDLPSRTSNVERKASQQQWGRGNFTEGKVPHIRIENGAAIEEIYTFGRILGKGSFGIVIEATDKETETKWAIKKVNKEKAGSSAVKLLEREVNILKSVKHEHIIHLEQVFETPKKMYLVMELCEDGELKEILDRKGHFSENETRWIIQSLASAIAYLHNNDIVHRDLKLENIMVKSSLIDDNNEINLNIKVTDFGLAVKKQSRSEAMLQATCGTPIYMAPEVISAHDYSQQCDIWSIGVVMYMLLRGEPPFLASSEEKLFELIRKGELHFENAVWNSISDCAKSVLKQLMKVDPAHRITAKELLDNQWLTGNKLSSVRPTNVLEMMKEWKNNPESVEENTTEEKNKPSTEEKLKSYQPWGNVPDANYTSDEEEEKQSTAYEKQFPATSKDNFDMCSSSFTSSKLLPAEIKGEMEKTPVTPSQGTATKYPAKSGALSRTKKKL

O=C(Nc1cc(-c2cn(CCNc3c4c(nc5ccccc35)CCCC4)nn2)ccn1)Nc1cccc2c1C1CCCCN1C2=O (racemic)
Activity [1]: 1.8%
Activity [2]: 100%
Activity [3]: 100%
Activity [4]: 6.4%
Activity [5]: 100%
Activity [6]: 12%
Activity [7]: 19%
Activity [8]: 7.5%
Activity [9]: 82%
Activity [10]: 52%
Activity [11]: 25%
Activity [12]: 7.6%
Activity [13]: 52%
Activity [14]: 41%
Activity [15]: 55%
Activity [16]: 6.7%
Activity [17]: 56%
Activity [18]: 75%
Activity [19]: 96%
Activity [20]: 43%
Activity [21]: 3.7%
Activity [22]: 100%
Activity [23]: 75%
Activity [24]: 76%

Reference: ChEMBL document CHEMBL4390652, “Design, biological evaluation and X-ray crystallography of nanomolar multifunctional ligands targeting simultaneously acetylcholinesterase and glycogen synthase kinase-3” (Eur J Med Chem, 2019)
